Measurements published in ChEMBL document CHEMBL1146779, “Bridgehead-methyl analog of SC-53116 as a 5-HT4 agonist” (Bioorg Med Chem Lett, 2004).

How the values were obtained:
[1] = target: T1, 5-hydroxytryptamine receptor 4 (Rattus norvegicus, UniProt Q62758); assay: Compound was tested for agonist activity at the 5-hydroxytryptamine 4 receptor in the rat tunica muscularis mucosae (TMM) assay; assay type: functional, tissue-based, Muscularis mucosa
[2] = target: T2, Adrenergic receptor alpha-2 (Homo sapiens, UniProt P08913+P18825+P18089); assay: Compound was evaluated for alpha-2 adrenergic receptor binding; assay type: protein assay
T2 sequence (P08913 whole entry): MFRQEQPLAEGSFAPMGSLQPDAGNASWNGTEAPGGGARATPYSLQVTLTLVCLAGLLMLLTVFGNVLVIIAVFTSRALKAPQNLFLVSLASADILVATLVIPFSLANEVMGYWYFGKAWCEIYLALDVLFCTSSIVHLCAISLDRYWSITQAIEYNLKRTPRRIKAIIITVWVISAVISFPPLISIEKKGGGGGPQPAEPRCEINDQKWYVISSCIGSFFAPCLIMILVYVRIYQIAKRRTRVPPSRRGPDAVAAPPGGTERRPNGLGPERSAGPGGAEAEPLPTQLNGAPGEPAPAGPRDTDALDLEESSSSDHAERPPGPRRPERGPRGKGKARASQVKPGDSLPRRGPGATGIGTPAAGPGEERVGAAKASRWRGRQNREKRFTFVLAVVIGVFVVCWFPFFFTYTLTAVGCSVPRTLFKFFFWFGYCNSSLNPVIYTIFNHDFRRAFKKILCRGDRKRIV
T2 sequence (P18825 whole entry): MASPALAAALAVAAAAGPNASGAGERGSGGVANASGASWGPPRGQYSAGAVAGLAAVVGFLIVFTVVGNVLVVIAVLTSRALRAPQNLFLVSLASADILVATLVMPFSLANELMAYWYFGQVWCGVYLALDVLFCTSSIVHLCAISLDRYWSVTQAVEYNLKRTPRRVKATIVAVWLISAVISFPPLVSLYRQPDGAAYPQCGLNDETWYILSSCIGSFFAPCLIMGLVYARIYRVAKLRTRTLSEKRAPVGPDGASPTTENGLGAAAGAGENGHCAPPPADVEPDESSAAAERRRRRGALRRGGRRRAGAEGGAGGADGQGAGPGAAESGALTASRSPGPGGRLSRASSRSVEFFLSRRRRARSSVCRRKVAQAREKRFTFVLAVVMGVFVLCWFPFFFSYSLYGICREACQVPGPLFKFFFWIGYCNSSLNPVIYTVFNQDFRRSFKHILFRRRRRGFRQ
T2 sequence (P18089 whole entry): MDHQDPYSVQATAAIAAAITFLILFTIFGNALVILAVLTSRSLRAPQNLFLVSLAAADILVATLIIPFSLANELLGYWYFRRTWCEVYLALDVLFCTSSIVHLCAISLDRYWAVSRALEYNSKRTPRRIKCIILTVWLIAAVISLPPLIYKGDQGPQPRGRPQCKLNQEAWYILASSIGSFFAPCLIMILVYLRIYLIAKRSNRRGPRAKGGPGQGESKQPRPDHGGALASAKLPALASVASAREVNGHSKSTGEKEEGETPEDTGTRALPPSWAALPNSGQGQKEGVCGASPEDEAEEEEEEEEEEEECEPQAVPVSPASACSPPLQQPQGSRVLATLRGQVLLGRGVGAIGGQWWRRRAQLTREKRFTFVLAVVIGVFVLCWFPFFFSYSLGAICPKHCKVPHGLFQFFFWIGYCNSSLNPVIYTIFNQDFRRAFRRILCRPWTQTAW

Adrenergic receptor beta = Adrenergic receptor beta (Homo sapiens, UniProt P08588+P07550+P13945); assay: Compound was evaluated for Beta adrenergic receptor binding; assay type: protein assay
D(2) dopamine receptor = D(2) dopamine receptor (Homo sapiens, UniProt P14416); assay: Compound was evaluated for Dopamine receptor D2 binding
[3] = target: T1, 5-hydroxytryptamine receptor 4; assay: Tested for agonist activity at the 5-hydroxytryptamine 4 receptor in the rat tunica muscularis mucosae (TMM) assay of racemate mixture; assay type: functional
[4] = target: Serotonin 1 (5-HT1) receptor (Rattus norvegicus, UniProt P28564+P30940+P19327+P28565); assay: Compound was evaluated for 5-hydroxytryptamine 1 receptor binding; assay type: protein assay
[5] = target: Serotonin 3 (5-HT3) receptor; assay: Compound was evaluated for 5-hydroxytryptamine 3 receptor binding; assay type: protein-complex assay
[6] = target: Serotonin 2 (5-HT2) receptor (Homo sapiens, UniProt P41595+P28223+P28335); assay: Compound was evaluated for 5-hydroxytryptamine 2 receptor binding; assay type: protein assay
D(1A) dopamine receptor = D(1A) dopamine receptor (Homo sapiens, UniProt P21728); assay: Compound was evaluated for Dopamine receptor D1 binding
[7] = target: T3, Adrenergic receptor alpha-1 (Homo sapiens, UniProt P35348+P25100+P35368); assay: Compound was evaluated for alpha-1 adrenergic receptor binding; assay type: protein assay
T3 sequence (P35348 whole entry): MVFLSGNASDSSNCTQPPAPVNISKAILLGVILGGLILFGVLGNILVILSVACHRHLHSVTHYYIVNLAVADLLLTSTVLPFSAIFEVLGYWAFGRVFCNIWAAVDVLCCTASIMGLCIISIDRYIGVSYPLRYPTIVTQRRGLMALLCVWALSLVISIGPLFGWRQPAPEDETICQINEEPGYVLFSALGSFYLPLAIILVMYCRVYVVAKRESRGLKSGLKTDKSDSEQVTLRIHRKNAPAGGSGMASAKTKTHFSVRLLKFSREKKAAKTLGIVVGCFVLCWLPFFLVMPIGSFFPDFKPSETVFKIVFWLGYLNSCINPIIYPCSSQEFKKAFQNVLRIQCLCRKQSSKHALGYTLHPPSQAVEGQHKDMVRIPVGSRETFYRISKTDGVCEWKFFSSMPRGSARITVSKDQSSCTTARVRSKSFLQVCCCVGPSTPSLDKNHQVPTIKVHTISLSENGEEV
T3 sequence (P25100 whole entry): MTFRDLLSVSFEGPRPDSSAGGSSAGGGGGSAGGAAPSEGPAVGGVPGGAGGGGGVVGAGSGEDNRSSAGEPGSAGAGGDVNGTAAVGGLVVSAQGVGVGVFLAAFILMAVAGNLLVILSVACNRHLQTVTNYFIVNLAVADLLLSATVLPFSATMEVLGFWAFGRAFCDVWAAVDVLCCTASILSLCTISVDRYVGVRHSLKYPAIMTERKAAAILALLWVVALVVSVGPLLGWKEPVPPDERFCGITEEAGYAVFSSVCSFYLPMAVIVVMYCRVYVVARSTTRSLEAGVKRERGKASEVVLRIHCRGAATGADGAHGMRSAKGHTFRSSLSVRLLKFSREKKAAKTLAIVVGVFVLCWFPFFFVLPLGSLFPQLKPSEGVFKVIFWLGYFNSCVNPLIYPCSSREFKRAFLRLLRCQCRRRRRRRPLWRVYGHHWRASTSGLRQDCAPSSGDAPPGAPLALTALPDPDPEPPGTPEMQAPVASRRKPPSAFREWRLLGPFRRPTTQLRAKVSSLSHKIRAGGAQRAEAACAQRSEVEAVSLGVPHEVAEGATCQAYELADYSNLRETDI
T3 sequence (P35368 whole entry): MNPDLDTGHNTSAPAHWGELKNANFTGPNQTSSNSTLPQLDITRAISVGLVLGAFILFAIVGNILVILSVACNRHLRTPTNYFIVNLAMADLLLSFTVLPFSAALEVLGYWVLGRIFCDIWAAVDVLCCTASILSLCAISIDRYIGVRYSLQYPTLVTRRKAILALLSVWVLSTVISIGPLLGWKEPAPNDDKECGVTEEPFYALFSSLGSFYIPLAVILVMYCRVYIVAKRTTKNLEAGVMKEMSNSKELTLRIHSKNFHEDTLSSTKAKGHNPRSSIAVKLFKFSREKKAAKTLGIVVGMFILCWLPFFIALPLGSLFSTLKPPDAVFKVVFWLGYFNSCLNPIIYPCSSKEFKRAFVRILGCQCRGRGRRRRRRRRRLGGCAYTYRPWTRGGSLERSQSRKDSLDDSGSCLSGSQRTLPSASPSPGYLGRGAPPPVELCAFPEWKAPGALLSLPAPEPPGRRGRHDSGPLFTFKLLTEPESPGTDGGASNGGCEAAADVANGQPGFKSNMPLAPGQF

[8] = target: T1, 5-hydroxytryptamine receptor 4; assay: Compound was tested for agonist activity at the 5-hydroxytryptamine 4 receptor in the rat tunica muscularis mucosae (TMM) assay; IN = Inactive; assay type: functional, tissue-based, Muscularis mucosa

T1 sequence (Q62758 whole entry): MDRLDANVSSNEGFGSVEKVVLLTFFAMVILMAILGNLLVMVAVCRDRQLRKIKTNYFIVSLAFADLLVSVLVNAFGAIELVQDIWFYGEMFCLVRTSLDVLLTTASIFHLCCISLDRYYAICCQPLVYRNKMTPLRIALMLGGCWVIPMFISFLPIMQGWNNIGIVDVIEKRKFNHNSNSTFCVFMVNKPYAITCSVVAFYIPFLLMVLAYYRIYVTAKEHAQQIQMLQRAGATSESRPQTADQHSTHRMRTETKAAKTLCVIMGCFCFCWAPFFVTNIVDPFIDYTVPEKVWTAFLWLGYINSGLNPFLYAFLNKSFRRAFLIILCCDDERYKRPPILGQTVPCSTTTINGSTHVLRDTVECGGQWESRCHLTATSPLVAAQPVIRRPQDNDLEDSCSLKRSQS
Chain of D(2) dopamine receptor (P14416 whole entry): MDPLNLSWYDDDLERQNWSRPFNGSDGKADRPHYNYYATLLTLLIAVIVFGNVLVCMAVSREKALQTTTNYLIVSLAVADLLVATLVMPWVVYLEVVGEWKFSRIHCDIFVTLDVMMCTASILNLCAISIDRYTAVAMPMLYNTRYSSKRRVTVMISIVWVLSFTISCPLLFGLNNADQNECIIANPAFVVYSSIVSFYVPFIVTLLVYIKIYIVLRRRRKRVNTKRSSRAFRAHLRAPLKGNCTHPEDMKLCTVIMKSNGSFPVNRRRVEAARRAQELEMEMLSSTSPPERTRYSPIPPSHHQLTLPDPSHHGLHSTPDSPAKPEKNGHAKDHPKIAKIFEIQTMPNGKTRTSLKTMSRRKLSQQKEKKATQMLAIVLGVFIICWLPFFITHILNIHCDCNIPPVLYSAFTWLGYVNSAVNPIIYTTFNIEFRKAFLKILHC
Chain of D(1A) dopamine receptor (P21728 whole entry): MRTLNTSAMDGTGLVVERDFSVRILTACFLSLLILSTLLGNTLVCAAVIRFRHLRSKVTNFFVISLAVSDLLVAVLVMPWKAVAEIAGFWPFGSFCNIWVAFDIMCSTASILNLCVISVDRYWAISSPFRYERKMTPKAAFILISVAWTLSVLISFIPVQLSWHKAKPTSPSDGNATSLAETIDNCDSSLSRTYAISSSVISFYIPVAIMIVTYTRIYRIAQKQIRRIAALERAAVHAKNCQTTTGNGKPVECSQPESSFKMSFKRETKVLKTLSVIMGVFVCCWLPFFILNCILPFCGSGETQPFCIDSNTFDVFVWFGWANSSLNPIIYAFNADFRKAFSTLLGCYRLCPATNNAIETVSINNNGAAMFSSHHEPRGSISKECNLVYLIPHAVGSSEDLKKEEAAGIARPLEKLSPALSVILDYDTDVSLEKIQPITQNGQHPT

| EC50 [1] | Ki [2] | Ki (Adrenergic receptor beta) | Ki (D(2) dopamine receptor) | EC50 [3] | Ki [4] | Ki [5] | Ki [6] | Ki (D(1A) dopamine receptor) | Ki [7] | EC50 [8] | SMILES |
| --- | --- | --- | --- | --- | --- | --- | --- | --- | --- | --- | --- |
| 0.023 µM | > 10 µM | > 10 µM | > 10 µM | 0.066 µM | > 10 µM | 0.152 µM | > 10 µM | > 10 µM | > 10 µM |  | COc1cc(N)c(Cl)cc1C(=O)NC[C@@H]1CCN2CCC[C@@H]12 |
|  |  |  |  |  |  |  |  |  |  | Not Active | COc1cc(N)c(Cl)cc1C(=O)N[C@@H]1C2CC3CN(C2)CC31 (some centres not stated) |
| 0.449 µM |  |  |  |  |  |  |  |  |  |  | COc1cc(N)c(Cl)cc1C(=O)NC[C@@H]1CCN2CCC[C@@]12C (racemic) |
